Test results: ChEMBL document CHEMBL4152336, “Optimization of the first small-molecule relaxin/insulin-like family peptide receptor (RXFP1) agonists: Activation results in an antifibrotic gene expression profile” (Eur J Med Chem, 2018)
Calls of active or inactive are those of the source. No cut-off for these calls is given here.

How the values were obtained:
Mus musculus [1] = assay: Toxicity in C57/BL6 mouse assessed as body weight at 90 mg/kg, po treated for 5 days measured at day 5 post last dose (reference value: 20.3 +/- 2.8 g); type: organism-based; conditions: in vivo, 120 h
[2] = Drug level in C57/BL6 mouse heart at 3 mg/kg, iv after 1 hr; type: ADME, organism-based; conditions: in vivo
Mus musculus [3] = assay: Toxicity in C57/BL6 mouse assessed as body weight at 300 mg/kg, po treated for 5 days measured at day 9 post last dose (reference value: 20.7 +/- 2.9 g); type: organism-based; conditions: in vivo, 120 h
Mus musculus [4] = assay: Toxicity in C57/BL6 mouse assessed as body weight at 3000 mg/kg, po treated for 5 days measured at day 2 post last dose (reference value: 19.8 +/- 2.3 g); type: organism-based; conditions: in vivo, 120 h
Mus musculus [5] = assay: Toxicity in C57/BL6 mouse assessed as body weight at 90 mg/kg, po treated for 5 days measured at day 3 post last dose (reference value: 19.8 +/- 2.5 g); type: organism-based; conditions: in vivo, 120 h
Mus musculus [6] = assay: Toxicity in C57/BL6 mouse at 3 to 30 mg/kg, iv; type: organism-based; conditions: in vivo
[7] = Drug level in C57/BL6 mouse heart at 3 mg/kg, iv after 0.08 hrs; type: ADME, organism-based; conditions: in vivo
[8] = Drug level in C57/BL6 mouse heart at 3 mg/kg, iv after 3 hrs; type: ADME, organism-based; conditions: in vivo
Homo sapiens [9] = species on record: Homo sapiens; assay: Upregulation of MMP1 gene expression in human HSC at 5 uM after 24 to 72 hrs by RT-qPCR analysis; type: functional
Mus musculus [10] = assay: Toxicity in C57/BL6 mouse assessed as body weight at 90 mg/kg, po treated for 5 days measured at day 2 post last dose (reference value: 19.8 +/- 2.3 g); type: organism-based; conditions: in vivo, 120 h
Homo sapiens [11] = species on record: Homo sapiens; assay: Down regulation of ACTA2 gene expression in human HSC at 5 uM after 24 to 72 hrs by RT-qPCR analysis; type: functional
Mus musculus [12] = assay: Toxicity in C57/BL6 mouse assessed as body weight at 90 mg/kg, po treated for 5 days measured at day 1 post last dose (reference value: 20.3 +/- 2.6 g); type: organism-based; conditions: in vivo, 120 h
[13] = Drug level in C57/BL6 mouse heart at 3 mg/kg, iv after 24 hrs; type: ADME, organism-based; conditions: in vivo
[14] = Drug level in C57/BL6 mouse heart at 30 mg/kg, po after 7 hrs; type: ADME, organism-based; conditions: in vivo
Mus musculus [15] = assay: Toxicity in C57/BL6 mouse assessed as body weight at 3000 mg/kg, po treated for 5 days measured at day 8 post last dose (reference value: 20.6 +/- 2.8 g); type: organism-based; conditions: in vivo, 120 h
Mus musculus [16] = assay: Toxicity in C57/BL6 mouse assessed as body weight at 90 mg/kg, po treated for 5 days measured at day 10 post last dose (reference value: 20.7 +/- 2.6 g); type: organism-based; conditions: in vivo, 120 h
Mus musculus [17] = assay: Toxicity in C57/BL6 mouse assessed as abnormal behavior at 3 to 30 mg/kg, po; type: organism-based; conditions: in vivo
[18] = Drug level in C57/BL6 mouse heart at 30 mg/kg, po after 3 hrs; type: ADME, organism-based; conditions: in vivo

**Q.** Which Activity (Mus musculus [1]) does the source give for `CC(C)Oc1ccccc1C(=O)Nc1ccccc1C(=O)Nc1cccc(S(=O)(=O)C(F)(F)F)c1` here?
**A.** Its Activity is 20 g.

**Q.** And the Drug uptake [2]?
**A.** The Drug uptake was 1.395 µmol/kg.

**Q.** And the Activity (Mus musculus [3])?
**A.** Its Activity is 21 g.

**Q.** And the Activity (Mus musculus [4])?
**A.** The Activity was 20.6 g.

**Q.** And the Activity (Mus musculus [5])?
**A.** Its Activity is 19.9 g.

**Q.** What about the Activity (Mus musculus [6]) of the same molecule?
**A.** Its Activity is “Non-Toxic”.

**Q.** And the Drug uptake [7]?
**A.** The Drug uptake was 4.12 µmol/kg.

**Q.** And the Drug uptake [8]?
**A.** Its Drug uptake is 0.6 µmol/kg.

**Q.** And the Activity (Homo sapiens [9])?
**A.** The Activity was “Active”.

**Q.** And the Activity (Mus musculus [10])?
**A.** Its Activity is 19.9 g.

**Q.** What about the Activity (Homo sapiens [11]) of the same molecule?
**A.** The Activity was “Active”.

**Q.** And the Activity (Mus musculus [12])?
**A.** Its Activity is 19.9 g.

**Q.** And the Drug uptake [13]?
**A.** Its Drug uptake is 0.109 µmol/kg.

**Q.** What about the Drug uptake [14] of the same molecule?
**A.** The Drug uptake was 0.067 µmol/kg.

**Q.** And the Activity (Mus musculus [15])?
**A.** The Activity was 21.1 g.

**Q.** What about the Activity (Mus musculus [16]) of the same molecule?
**A.** The Activity was 20.8 g.

**Q.** And the Activity (Mus musculus [17])?
**A.** The Activity was “Non-Toxic”.

**Q.** What about the Drug uptake [18] of the same molecule?
**A.** The Drug uptake was 0.995 µmol/kg.
